Measured values taken from patent publication US20040127361A1 (priority 2003, published 2004).

Legend:
Assay type in all cases: in vivo
[1] = tested on: Erysiphe graminis f sp. tritici; test: Test A: wheat powdery mildew, preventive spray on wheat seedlings; settings: wheat seedlings sprayed to run-off, inoculated following day with spore dust, 20° C. for 7 days; test concentration not stated
Description: (§1) General protocol for preparing test suspensions: Test compounds are first dissolved in acetone in an amount equal to 3% of the final volume and then suspended at the desired concentration (in ppm) in acetone and purified water (50/50 mix) containing 250 ppm of the surfactant Trem® 014 (polyhydric alcohol esters). The resulting test suspensions are then used in the following tests. Spraying a 200 ppm test suspension to the point of run-off on the test plants is the equivalent of a rate of 500 g/ha
The test suspension was sprayed to the point of run-off on wheat seedlings. The following day the seedlings were inoculated with a spore dust of Erysiphe graminis f sp. tritici, (the causal agent of wheat powdery mildew) and incubated in a growth chamber at 20° C. for 7 days, after which disease ratings were made.
(§2) Results for Tests A-D are given in Table A. In the table, a rating of 100 indicates 100% disease control and a rating of 0 indicates no disease control (relative to the controls). A dash (-) indicates no test results. ND indicates disease control not determined due to phytotoxicity.

[2] = tested on: Puccinia recondita; test: Test B: wheat leaf rust, preventive spray on wheat seedlings; settings: wheat seedlings sprayed to run-off, inoculated following day with spore suspension, saturated atmosphere 20° C. 24 hours then growth chamber 6 days; test concentration not stated
Description: as §1
The test suspension was sprayed to the point of run-off on wheat seedlings. The following day the seedlings were inoculated with a spore suspension of Puccinia recondita (the causal agent of wheat leaf rust) and incubated in a saturated atmosphere at 20° C. for 24 hours, and then moved to a growth chamber at 20° C. for 6 days, after which disease ratings were made.
as §2

[3] = tested on: Phytophthora infestans; settings: tomato seedlings sprayed to run-off, inoculated following day with spore suspension, saturated atmosphere 20° C. 24 hours then growth chamber 5 days; test concentration not stated

SMILES | Test A disease control rating (100 = 100% disease control, 0 = no disease control relative to the controls) [1] | Test B disease control rating (100 = 100% disease control, 0 = no disease control relative to the controls) [2] | Test C disease control rating (100 = 100% disease control, 0 = no disease control relative to the controls) [3]
Cc1cnc2c(c1)CCCC2NC(=O)c1ccccc1Cl (stereo not drawn) [Compound A5] | 0% | 55% | 46%
Cc1cnc2c(c1)CCCC2NC(=O)c1c(F)cccc1F (stereo not drawn) [Compound A4] | 0% | 0% | 90%
Cc1cnc2c(c1)CCCC2NC(=O)c1c(F)ccc(F)c1F (stereo not drawn) [Compound A8, 2,3,6-trifluoro-N-(5,6,7,8-tetrahydro-3-methyl-8-quinolinyl)benzamide] | 0% | 55% | 100%
Cc1cnc2c(c1)CCCC2NC(=O)c1cccnc1Nc1cccc(C(F)(F)F)c1 (stereo not drawn) [Compound B1] | 0% | 19% | 16%
Cc1cnc2c(c1)CCCC2NC(=O)c1ccccc1C (stereo not drawn) [Compound A7] | 0% | 45% | 75%
Cc1cnc2c(c1)CCCC2NC(=O)c1ccnc(Cl)c1 (stereo not drawn) [Compound C1] | 0% | 55% | 84%
COc1cc(C(=O)NC2CCCc3cc(C)cnc32)cc(Cl)n1 (stereo not drawn) [Compound C2, 2-chloro-6-methoxy-N-(5,6,7,8-tetrahydro-3-methyl-8-quinolinyl)4-pyridinecarboxamide] | 95% | 28% | 18%
CSc1ncccc1C(=O)NC1CCCc2cc(C)cnc21 (stereo not drawn) [Compound B3] | 0% | 23% | 56%
Cc1cnc2c(c1)CCCC2NC(=O)c1c(Cl)cc(Cl)cc1Cl (stereo not drawn) [Compound A6] | 0% | 9% | 82%
Cc1cnc2c(c1)CCCC2NC(=O)c1c(F)cccc1Cl (stereo not drawn) [Compound A9] | 0% | 38% | 97%
Cc1cnc2c(c1)CCCC2NC(=O)c1c(Cl)cccc1Cl (stereo not drawn) [Compound A1, 2,6-dichloro-N-(5,6,7,8-tetrahydro-3-methyl-8-quinolinyl)benzamide] | 0% | 84% | 100%
Cc1cnc2c(c1)CCCC2NC(=O)c1ccc(Cl)nc1 (stereo not drawn) [Compound B4] | 0% | 9% | 32%
Cc1cnc2c(c1)CCCC2NC(=O)c1ccccc1C(F)(F)F (stereo not drawn) [Compound A3] | 0% | 41% | 47%
Cc1cnc2c(c1)CCCC2NC(=O)c1cccnc1O (stereo not drawn) [Compound B8] | 0% | 19% | 47%
Cc1cnc2c(c1)CCCC2NC(=O)c1ccc(Br)cc1 (stereo not drawn) [Compound A2] | 0% | 18% | 5%
